The text below walks through data of PubChem BioAssay (NCI).

Test systems include ACHN renal; HOP-62 NSCLC; HOP-92 NSCLC; RXF 393 renal; SNB-19 CNS; U251 CNS; HL-60(TB) leukemia; NCI-H522 lung.
Common to all, as to assay: NCI tumour cell line growth inhibition, 48 h

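These data come from cells grown in 96-well plates and exposed to compound for 48 hours at five concentrations. The concentration for 50% growth inhibition is given as GI50. TGI is the concentration that stops growth completely.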

For `COc1ccc2c(CN3CCCC[C@H]3C(=O)O)cc3cc4c(cc3c2c1)OCO4`, the GI50 in the experiment on ACHN renal was 0.46 µM; in the experiment on HOP-62 NSCLC, 4.33 µM; with HOP-92 NSCLC it was 1.86 µM; in the experiment with RXF 393 renal it was 0.414 µM; with SNB-19 CNS it was 1.59 µM; in the experiment on U251 CNS it was 1.96 µM. Further, the TGI with ACHN renal was 2.43 µM; with HOP-62 NSCLC, greater than 100 µM; in the experiment with HOP-92 NSCLC it was 5.19 µM; in the experiment on RXF 393 renal, 2.03 µM; in the experiment on SNB-19 CNS, 5.74 µM; with U251 CNS, 5.4 µM.

On to `O=C1CCCCCCCCCCC1CN1CCCC1` (stereo not drawn), for which the TGI in the experiment with ACHN renal is greater than 100 µM; in the experiment with HL-60(TB) leukemia, greater than 100 µM; with HOP-62 NSCLC, 34.7 µM; in the experiment on NCI-H522 lung, greater than 100 µM; in the experiment on RXF 393 renal it was 65.4 µM; in the experiment with SNB-19 CNS, greater than 100 µM. Also, in the experiment on U251 CNS, the TGI was greater than 100 µM.

As to `O=C(/C=C/Sc1cc(C(F)(F)F)cc(C(F)(F)F)c1)c1ccc(Cl)cc1`, the GI50 in the experiment with ACHN renal is 1.78 µM; in the experiment with HL-60(TB) leukemia, 2 µM; in the experiment with HOP-62 NSCLC, 18.3 µM; in the experiment on NCI-H522 lung it was 3.42 µM; with RXF 393 renal, 12 µM; in the experiment with SNB-19 CNS, 12.8 µM. For the same compound, the GI50 with U251 CNS was 4.65 µM. The TGI in the experiment on ACHN renal was determined as 3.36 µM; in the experiment with HL-60(TB) leukemia, 11.4 µM; with HOP-62 NSCLC, 32.7 µM; with NCI-H522 lung, 12.4 µM; with RXF 393 renal it was 25.3 µM; with SNB-19 CNS it was 25.4 µM. The compound also showed a TGI in the experiment on U251 CNS of 16.2 µM.

Take `O=C(C/C(=N/O)C(=O)NC1=C(Cl)C(=O)c2ccccc2C1=O)CC(c1ccccc1)c1c(O)c2ccccc2oc1=O` (stereo not drawn): the TGI is 65.7 µM with ACHN renal; greater than 100 µM in the experiment with HOP-92 NSCLC; 52.9 µM in the experiment on NCI-H522 lung; 35 µM with RXF 393 renal; greater than 100 µM in the experiment on SNB-19 CNS; greater than 100 µM with U251 CNS.

In the case of `Cc1cc2c(cc1Cl)SC1=NN(C)C(C)N1S2(=O)=O` (stereo not drawn), the GI50 in the experiment with ACHN renal is greater than 100 µM; with HOP-62 NSCLC it was greater than 100 µM; in the experiment with HOP-92 NSCLC, 19.3 µM; in the experiment with NCI-H522 lung it was 88.8 µM; with SNB-19 CNS, greater than 100 µM; with U251 CNS it was greater than 100 µM. Moreover, the TGI in the experiment with ACHN renal was greater than 100 µM; with HOP-62 NSCLC it was greater than 100 µM; with HOP-92 NSCLC, 80.9 µM; with NCI-H522 lung, greater than 100 µM; in the experiment on SNB-19 CNS, greater than 100 µM; in the experiment with U251 CNS, greater than 100 µM.

Consider `CC1CCC/C1=C(/I)C(=O)c1ccccc1` (stereo not drawn), for which the TGI was greater than 100 µM in the experiment with ACHN renal; 70.4 µM with HL-60(TB) leukemia; greater than 100 µM in the experiment on HOP-62 NSCLC; greater than 100 µM in the experiment on NCI-H522 lung; greater than 100 µM in the experiment with RXF 393 renal; greater than 100 µM in the experiment with SNB-19 CNS. The TGI in the experiment with U251 CNS is greater than 100 µM.

With `C[C@@H]1[C@H](C)N1CC(O)Cn1ccnc1[N+](=O)[O-]` (stereo partly drawn), the TGI with ACHN renal, in the experiment with HL-60(TB) leukemia, with HOP-62 NSCLC, with NCI-H522 lung, with RXF 393 renal and with SNB-19 CNS was greater than 100 µM in each case. The compound also returned a TGI in the experiment with U251 CNS greater than 100 µM.

Consider `COc1cc(OC)c2nc(C)c3c(c2c1)SCC3`, for which the TGI in the experiment on ACHN renal is 34.5 µM; in the experiment on HL-60(TB) leukemia, greater than 100 µM; in the experiment on HOP-62 NSCLC, 34.6 µM; in the experiment with NCI-H522 lung it was 77.8 µM; with RXF 393 renal it was 54.1 µM; with SNB-19 CNS, 34.8 µM. This compound also returned a TGI in the experiment on U251 CNS of 55.9 µM.

With `CCOC(=O)CCC(NC(=O)OCc1ccccc1)C(=O)NC(CCC(=O)OCC)C(=O)NC(CCC(=O)OCC)C(=O)NC(CCC(=O)OCC)C(=O)NC(CCC(=O)OCC)C(=O)NC(CCC(=O)OCC)C(=O)NC(CCC(=O)OCC)C(=O)OCC` (stereo not drawn), the TGI with ACHN renal, in the experiment on HL-60(TB) leukemia, with HOP-62 NSCLC, with NCI-H522 lung, in the experiment on SNB-19 CNS and with U251 CNS was greater than 100 µM in each case.

Turning to `COC(=O)C1(Cc2ccc3c(c2)CCC3)Cc2ccccc2C1O` (stereo not drawn), the TGI in the experiment with ACHN renal was 38.3 µM; in the experiment with HL-60(TB) leukemia it was greater than 100 µM; in the experiment on HOP-62 NSCLC, 46.3 µM; in the experiment with NCI-H522 lung, 30.1 µM; with SNB-19 CNS it was 35.6 µM; in the experiment on U251 CNS, 31.1 µM.

Regarding `CCCCOC(=O)N1CCN(/[N+]([O-])=N/Oc2ccc([N+](=O)[O-])cc2[N+](=O)[O-])CC1`, the GI50 is 2.53 µM with ACHN renal; 6.85 µM with HL-60(TB) leukemia; 6.28 µM in the experiment with HOP-62 NSCLC; 2.91 µM in the experiment on NCI-H522 lung; 17.6 µM in the experiment on RXF 393 renal; 15.1 µM with SNB-19 CNS. Besides, the GI50 with U251 CNS is 5.85 µM. The TGI with ACHN renal was 7.19 µM; in the experiment on HL-60(TB) leukemia, greater than 100 µM; with HOP-62 NSCLC, 23.2 µM; in the experiment with NCI-H522 lung, greater than 100 µM; in the experiment on RXF 393 renal, 40.4 µM; in the experiment with SNB-19 CNS, 36.8 µM. In the experiment with U251 CNS, the TGI came out at 21.8 µM.
